Values quoted from earlier work, collected in patent publication US5420016A, “Test device and kit for detecting helicobacter pylori” (Serim Research Corporation, priority 1994, dated 1995).

Target: Urease from H. pylori (Helicobacter pylori, UniProt P69996)
Settings: read-out: Michaelis constant (urea); substrate urea; from Dunn, et al., J. Biol. Chem., 265:9464-9 (1990)

Sequence of Urease from H. pylori (P69996 whole entry): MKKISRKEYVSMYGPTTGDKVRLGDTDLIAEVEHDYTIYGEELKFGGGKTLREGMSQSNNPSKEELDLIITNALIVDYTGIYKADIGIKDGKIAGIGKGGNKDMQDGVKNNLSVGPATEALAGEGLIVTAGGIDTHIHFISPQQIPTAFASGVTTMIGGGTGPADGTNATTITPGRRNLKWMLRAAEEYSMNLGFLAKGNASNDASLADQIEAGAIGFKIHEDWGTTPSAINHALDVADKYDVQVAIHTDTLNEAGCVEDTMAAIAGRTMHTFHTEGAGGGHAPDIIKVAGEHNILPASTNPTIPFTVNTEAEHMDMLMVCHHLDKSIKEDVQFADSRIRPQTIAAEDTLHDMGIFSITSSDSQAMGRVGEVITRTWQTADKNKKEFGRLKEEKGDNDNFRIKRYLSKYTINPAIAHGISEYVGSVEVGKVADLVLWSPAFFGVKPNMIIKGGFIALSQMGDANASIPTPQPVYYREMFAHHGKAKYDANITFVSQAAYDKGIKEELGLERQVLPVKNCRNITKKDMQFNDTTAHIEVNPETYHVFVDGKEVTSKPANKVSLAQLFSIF
Sequence of Urease from H. pylori (P14916 whole entry, further chain): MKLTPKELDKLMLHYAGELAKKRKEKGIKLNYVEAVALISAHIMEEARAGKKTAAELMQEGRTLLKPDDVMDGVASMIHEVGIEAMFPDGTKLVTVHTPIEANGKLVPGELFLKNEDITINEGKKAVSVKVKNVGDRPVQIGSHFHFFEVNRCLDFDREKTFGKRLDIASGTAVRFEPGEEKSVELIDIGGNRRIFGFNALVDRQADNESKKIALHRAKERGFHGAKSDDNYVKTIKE

SMILES: NC(N)=O [urea]
- Km: 300 µM
